This is an account of results in patent US11618747B2, “LXR modulators with bicyclic core moiety” (OrsoBio, Inc., priority 2018, dated 2023).

pEC50: −log10 of the molar value.

Assay [1] deals with T1, LXRβ ligand-binding domain (Homo sapiens, UniProt P55055, DUP175-175).
T1 construct: amino acids 156-461; NP009052; made in house; host or cells: E. coli
T1 sequence (P55055 with tags, fused parts or gaps DUP175-175 limits assumed): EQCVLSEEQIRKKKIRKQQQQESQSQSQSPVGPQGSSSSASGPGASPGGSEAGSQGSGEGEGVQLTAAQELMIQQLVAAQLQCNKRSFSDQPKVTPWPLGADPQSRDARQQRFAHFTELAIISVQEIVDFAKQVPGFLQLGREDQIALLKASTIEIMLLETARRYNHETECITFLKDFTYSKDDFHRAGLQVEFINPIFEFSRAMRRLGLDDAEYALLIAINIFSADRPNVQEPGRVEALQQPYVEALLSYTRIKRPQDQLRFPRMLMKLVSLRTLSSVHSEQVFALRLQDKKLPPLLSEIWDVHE
Nature of the assay: TR-FRETβ activity assay (NCoA3 coactivator peptide recruitment). Type of assay: biochemical. To be noted: TR-FRET, 1 μM 24(S)-25-epoxycholesterol prestimulation; read-out: FRETβ (EC50 range). Put shortly: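 Inverse agonism assessed by loss of coactivator recruitment, read as TR-FRET 665/615 nm after 1 h equilibration at 4 °C, in triplicate. Ten-point titration from 50 μM to 0.002 μM against LXRβ LBD (76 nM, GST fusion) prestimulated with 1 μM 24(S)-25-epoxycholesterol, with 400 nM NCoA3 peptide, pH 6.8. Sulfonyl acetic acids kept as 20 mM DMSO stocks with 100 mM TFA.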
A general note: In TR-FRET formats the signal depends on donor and acceptor labels being close together.

The target of another assay is T2, full length (FL) LXRβ (Homo sapiens, UniProt P55055, DUP175-175).
T2 construct: the full length (FL) proteins of LXRα (amino acids 1-447); NP005684; NP009052; expressed in transfected cells; host or cells: HEK293
T2 sequence (P55055 with tags, fused parts or gaps DUP175-175): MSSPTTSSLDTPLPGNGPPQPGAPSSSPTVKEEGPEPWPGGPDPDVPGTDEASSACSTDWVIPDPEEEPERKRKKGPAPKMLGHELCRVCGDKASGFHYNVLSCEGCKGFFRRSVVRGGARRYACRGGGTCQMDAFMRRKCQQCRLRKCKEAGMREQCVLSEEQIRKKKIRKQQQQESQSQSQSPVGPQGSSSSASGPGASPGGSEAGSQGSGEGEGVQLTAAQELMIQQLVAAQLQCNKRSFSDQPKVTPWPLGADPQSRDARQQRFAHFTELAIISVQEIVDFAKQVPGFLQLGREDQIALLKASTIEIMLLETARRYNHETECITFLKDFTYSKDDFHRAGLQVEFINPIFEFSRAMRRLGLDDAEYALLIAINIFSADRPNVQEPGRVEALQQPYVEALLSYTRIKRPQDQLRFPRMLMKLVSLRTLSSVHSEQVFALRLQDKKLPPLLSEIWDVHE
The assay is described as follows: LXR Gal4 reporter transient transfection assay (FL-M2H Gal4β). It counts as cell-based. To be noted: HEK293 cells, full length LXRβ; read-out: FL-M2H Gal4β (EC50 range). In a few lines: (§1)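 Cells (HEK293, 3.5×10^4/well) were plated 16-20 h, transfected with LXR, cofactor and reporter plasmids, treated with compound after 4 h, and lysed after a further 16 h. Interaction of LXR constructs with SRC1 or NCoR is detected by GAL4-driven Firefly luciferase.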

The target of a further assay is T3, full length (FL) LXRα (Homo sapiens, UniProt Q13133).
T3 construct: the full length (FL) proteins of LXRα (amino acids 1-447); NP005684; expressed in transfected cells; host or cells: HEK293
T3 sequence (Q13133 1-447): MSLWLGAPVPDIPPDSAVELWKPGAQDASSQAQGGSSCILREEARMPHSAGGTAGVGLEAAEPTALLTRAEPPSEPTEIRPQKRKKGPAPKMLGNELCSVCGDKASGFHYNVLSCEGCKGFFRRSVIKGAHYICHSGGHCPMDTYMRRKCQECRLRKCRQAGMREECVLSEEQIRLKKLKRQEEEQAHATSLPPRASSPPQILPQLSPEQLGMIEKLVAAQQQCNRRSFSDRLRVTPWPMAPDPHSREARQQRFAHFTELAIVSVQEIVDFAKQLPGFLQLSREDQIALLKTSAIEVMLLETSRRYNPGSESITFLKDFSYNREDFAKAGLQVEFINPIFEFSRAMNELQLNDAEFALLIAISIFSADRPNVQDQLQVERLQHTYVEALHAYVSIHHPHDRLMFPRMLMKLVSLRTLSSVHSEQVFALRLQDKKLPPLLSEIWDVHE
Nature of the assay: LXR Gal4 reporter transient transfection assay (FL-M2H Gal4α). It counts as cell-based. The note with it: HEK293 cells, full length LXRα; read-out: FL-M2H Gal4α (EC50 range). Put shortly:
as §1

As a reminder, the pEC50 is the negative decadic logarithm of the EC50, by convention in mol/L. With `COc1cc(C(=O)O)ccc1-c1cccc(-c2c(-c3ccccc3C#N)c3cc(F)ccc3n2S(=O)(=O)c2ccc(C(F)F)cc2)c1` [11/29], the pEC50 (in assay [1]; on full length (FL) LXRβ; at full length (FL) LXRα) was greater than 7.00 in each case.

Take `Cc1ccc(S(=O)(=O)n2c(-c3cccc(-c4ccc(C(C)(C)N)cc4Cl)c3)c(-c3ccsc3C#N)c3cc(F)ccc32)cc1` [2/2]: the pEC50 (in assay [1]; at full length (FL) LXRβ; on full length (FL) LXRα) was 6.00 to 7.00 throughout.

Take `Cc1ccc(S(=O)(=O)n2c(-c3cccc(C4CC4C(=O)O)c3)c(-c3ccsc3C#N)c3ccncc32)cc1` (stereo not drawn) [4/1]: the pEC50 is 5.00 to 6.00 in assay [1], greater than 7.00 at full length (FL) LXRβ and 6.00 to 7.00 at full length (FL) LXRα.

Consider `Cc1ccc(S(=O)(=O)n2c(-c3cccc(-c4ccc(C(C(=O)O)N(C)C)cc4Cl)c3)c(-c3ccsc3C#N)c3cc(F)ccc32)cc1` (stereo not drawn) [Example 3, 2-(2-Chloro-3′-(3-(2-cyanothiophen-3-yl)-5-fluoro-1-tosyl-1H-indol-2-yl)-[1,1′-biphenyl]-4-yl)-2-(dimethylamino)acetic Acid], for which the pEC50 (in assay [1]; on full length (FL) LXRβ; on full length (FL) LXRα) was greater than 7.00 each time.

As to `O=C(O)c1ccc(-c2cccc(-c3c(-c4ccccc4C4COC4)c4cnccc4n3S(=O)(=O)c3ccc(C(F)F)cc3)c2)c(Cl)c1` [8/3], the results for the pEC50 (in assay [1]; on full length (FL) LXRβ; on full length (FL) LXRα) were 6.00 to 7.00, greater than 7.00 and 6.00 to 7.00, respectively.

As for `Cc1ccc(S(=O)(=O)n2c(-c3cccc(-c4ccc(C(=O)O)c(F)c4Cl)c3)c(-c3ccsc3C#N)c3cc(F)ccc32)cc1` [12/3], the figures for the negative-log EC50 (pEC50) (in assay [1]; on full length (FL) LXRβ; at full length (FL) LXRα) were 6.00 to 7.00, greater than 7.00 and greater than 7.00, respectively.

Regarding `N#Cc1cncc(C#N)c1-c1c(-c2cccc(-c3ccc(C(=O)O)cc3Cl)c2)n(S(=O)(=O)c2ccc(C(F)F)cc2)c2ccc(F)cc12` [11/67], the pEC50 in assay [1] is 6.00 to 7.00; on full length (FL) LXRβ, greater than 7.00; on full length (FL) LXRα it was greater than 7.00.

On to `O=C(O)c1ccc(-c2cccc(-c3c(-c4ccccc4C4(F)CNC4)c4cc(F)ccc4n3S(=O)(=O)c3ccc(C(F)F)cc3)c2)c(Cl)c1` [3/61], for which the pEC50 (in assay [1]; on full length (FL) LXRβ; on full length (FL) LXRα) was 6.00 to 7.00 each time.

Turning to `Cc1ccc(S(=O)(=O)n2c(-c3cccc(-c4ccc(C(=O)O)c(C)c4Cl)c3)c(-c3ccsc3C#N)c3cc(F)ccc32)cc1` [12/1], the pEC50 was 6.00 to 7.00 in assay [1], greater than 7.00 at full length (FL) LXRβ and greater than 7.00 at full length (FL) LXRα.

On to `Cc1ccc(S(=O)(=O)n2c(-c3cccc(-c4ccc(CO)c(S(=O)(=O)CC(=O)O)c4)c3)c(-c3ccsc3C#N)c3ccccc32)cc1` [5/1], for which the pEC50 is 6.00 to 7.00 in assay [1], 6.00 to 7.00 at full length (FL) LXRβ and 5.00 to 6.00 at full length (FL) LXRα.

As to `N#CC1=C(c2c(-c3cccc(-c4ccc(C(=O)O)cc4Cl)c3)n(S(=O)(=O)c3ccc(C(F)F)cc3)c3ccc(F)cc23)CCCC1` [11/42], the pEC50 in assay [1] was less than 5.00; at full length (FL) LXRβ it was 6.00 to 7.00; at full length (FL) LXRα, 6.00 to 7.00.

Regarding `Cc1cccc(C(F)F)c1-c1c(-c2cccc(-c3ccc(C(=O)O)cc3Cl)c2)n(S(=O)(=O)c2ccc(C(F)F)cc2)c2ccc(F)cc12` [11/38], the pEC50 (in assay [1]; at full length (FL) LXRβ; at full length (FL) LXRα) was greater than 7.00 each time.

For `COc1cc(-c2c(-c3cccc(-c4ccc(C(=O)O)cc4Cl)c3)n(S(=O)(=O)c3ccc(C(F)F)cc3)c3ccc(F)cc23)c2c(C#N)cnn2c1` [11/46], the pEC50 (in assay [1]; at full length (FL) LXRβ; at full length (FL) LXRα) was greater than 7.00 in each case.

In the case of `N#Cc1ccc(S(=O)(=O)n2c(-c3cccc(-c4ccc(C(=O)O)cc4Cl)c3)c(-c3ccsc3C#N)c3cc(F)ccc32)cc1` [11/20], the pEC50 in assay [1] is 6.00 to 7.00; at full length (FL) LXRβ, greater than 7.00; at full length (FL) LXRα, greater than 7.00.

`Cc1ccc(S(=O)(=O)n2c(-c3cccc(-c4ccc(C(=O)O)cc4Cl)c3)c(-c3c(C)cccc3C#N)c3cc(F)ccc32)cc1` [11/6]: the pEC50 (in assay [1]; on full length (FL) LXRβ; on full length (FL) LXRα) was greater than 7.00 throughout.

Regarding `COc1ccc(S(=O)(=O)n2c(-c3cccc(N4CC(C(=O)O)C4)c3)c(-c3ccsc3C#N)c3cc(F)ccc32)cc1` [3/33], the negative-log EC50 (pEC50) is 5.00 to 6.00 in assay [1], greater than 7.00 at full length (FL) LXRβ and 6.00 to 7.00 at full length (FL) LXRα.

Regarding `N#Cc1cccc(C#N)c1-c1c(-c2cccc(-c3ccc(C(=O)O)cc3Cl)c2)n(S(=O)(=O)c2ccc(C(F)F)cc2)c2cnc(O)cc12` [3/70], the pEC50 (in assay [1]; on full length (FL) LXRβ; at full length (FL) LXRα) was 6.00 to 7.00 in each case.

For the compound `COc1ccc(S(=O)(=O)n2c(-c3cccc(N4CC(C(=O)O)C4)c3)c(-c3ccsc3C#N)c3cc(F)ccc32)cn1` [5/8], the pEC50 (in assay [1]; at full length (FL) LXRβ; at full length (FL) LXRα) was 6.00 to 7.00 each time.

In the case of `Cc1ccc(S(=O)(=O)n2c(-c3cccc(-c4ccc5c(C(=O)O)n[nH]c5c4)c3)c(-c3ccsc3C#N)c3cc(F)ccc32)cc1` [12/9], the pEC50 (in assay [1]; at full length (FL) LXRβ; at full length (FL) LXRα) was 6.00 to 7.00 throughout.

As to `CC(C)(O)c1ccc(S(=O)(=O)n2c(-c3cccc(-c4ccc(C(=O)O)cc4Cl)c3)c(-c3ccccc3C#N)c3cc(F)ccc32)cc1` [30/16], the pEC50 is 5.00 to 6.00 in assay [1], 6.00 to 7.00 on full length (FL) LXRβ and 6.00 to 7.00 on full length (FL) LXRα.

Turning to `Cc1ccc(S(=O)(=O)n2c(-c3cccc(N4CC(C(=O)O)C4)c3)c(-c3ccoc3C#N)c3cc(F)ccc32)cc1` [3/26], the pEC50 in assay [1] was 5.00 to 6.00; at full length (FL) LXRβ, greater than 7.00; at full length (FL) LXRα, 6.00 to 7.00.

For the compound `N#Cc1sccc1-c1c(-c2cccc(N3CC(C(=O)O)C3)c2)n(S(=O)(=O)c2ccc3ccccc3c2)c2ccc(F)cc12` [3/13], the pEC50 was 5.00 to 6.00 in assay [1], greater than 7.00 on full length (FL) LXRβ and greater than 7.00 at full length (FL) LXRα.

Take `N#Cc1cccc(F)c1-c1c(-c2cccc(-c3ccc(C(=O)O)cc3Cl)c2)n(S(=O)(=O)c2ccc(C(F)F)cc2)c2ccc(F)cc12` [11/34]: the negative logarithm of the EC50 (pEC50) (in assay [1]; at full length (FL) LXRβ; at full length (FL) LXRα) was greater than 7.00 in each case.

Turning to `O=C(O)c1ccc(-c2cccc(-c3c(-c4ccsc4C4COC4)c4cc(F)ccc4n3S(=O)(=O)c3ccc(C(F)F)cc3)c2)c(Cl)c1` [3/63], the pEC50 (in assay [1]; at full length (FL) LXRβ; on full length (FL) LXRα) was greater than 7.00 each time.

Regarding `COc1cc(F)cc2c(-c3ccsc3C#N)c(-c3cccc(-c4ccc(C(=O)O)cc4)c3)n(S(=O)(=O)c3ccc(C)cc3)c12` [3/53], the pEC50 (in assay [1]; at full length (FL) LXRβ; on full length (FL) LXRα) was greater than 7.00 in each case.

`O=C(O)c1ccc(-c2cccc(-c3c(-c4cccc5oncc45)c4cc(F)ccc4n3S(=O)(=O)c3ccc(C(F)F)cc3)c2)c(Cl)c1` [3/69]: the pEC50 (in assay [1]; at full length (FL) LXRβ; on full length (FL) LXRα) was 6.00 to 7.00 in each case.

In the case of `O=C(O)c1ccc(-c2cccc(-c3c(-c4ccsc4C(F)(F)F)c4cc(F)ccc4n3S(=O)(=O)c3ccc(C(F)F)cc3)c2)c(Cl)c1` [11/22], the pEC50 (in assay [1]; on full length (FL) LXRβ; at full length (FL) LXRα) was greater than 7.00 throughout.
